Laboratory results reported in patent US6596873B1, “2-and 2,5-substituted phenylketoenols” (Bayer Aktiengesellschaft, priority 1996, dated 2003).

Tests used:
Format in all cases: in vivo
[1] = system: mustard beetle larvae (Phaedon cochleariae); experiment: Phaedon larvae test; conditions: active compound concentration of 0.1%, after 7 days; cabbage leaves dipped
Procedure: (§1) Phaedon Larvae Test [table] To produce a suitable preparation of active compound, 1 part by weight of active compound is mixed with the stated amount of solvent and the stated amount of emulsifier, and the concentrate is diluted with water to the desired concentration. Cabbage leaves (Brassica oleracea) are treated by being dipped into the preparation of the active compound of the desired concentration and are infested with mustard beetle larvae (Phaedon cochleariae) while the leaves are still moist. After the specified period of time, the destruction in % is determined. 100% means that all the beetle larvae have been killed; 0% means that none of the beetle larvae have been killed.

[2] = system: caterpillars of the owlet moth (Spodoptera frugiperda); experiment: Spodoptera test; conditions: active compound concentration of 0.1%, after 7 days; cabbage leaves dipped
Procedure: To produce a suitable preparation of active compound, 1 part by weight of active compound is mixed with the stated amount of solvent and the stated amount of emulsifier, an d the concentrate is diluted with water to the d esired concentration.
Cabbage leaves (Brassica oleracea) are treated by being dipped into the preparation of the active compound of the desired concentration and are infested with caterpillars of the owlet moth (Spodoptera frugiperda) as long, as the leaves are still moist.
After the specified period of time, the destruction in % is determined. 100% means that all the caterpillars have been killed; 0% means that none of the caterpiliars have been killed.

[3] = system: larvae of the green rice leaf hopper (Nephotettix cincticeps); experiment: Nephotettix test; conditions: active compound concentration of 0.1%, after 6 days; rice seedlings dipped
Procedure: as §1, with “Nephotettix” for “Phaedon Larvae”, “Rice seedlings (Oryzae sativa)” for “Cabbage leaves (Brassica oleracea)”, “with” for “with mustard beetle”, “of the green rice leaf hopper (Nephotettix cincticeps)” for “(Phaedon cochleariae)”, “seedlings” for “leaves”, “the” for “the beetle”

[4] = system: fruit tree spider mite (Panonychus ulmi); experiment: Panonychus test; conditions: active compound concentration of 0.004%, after 7 days; plum trees sprayed
Procedure: Panonychus Test [table] To prepare a suitable preparation of active compound, 1 part by weight of active compound is mixed with the stated amount of solvent and the stated amount of emulsifier, and the concentrate is diluted with water to the desired concentration. Plum trees (Prunus domestica) approximately 30 cm in height which are severely infested by all stages of the fruit tree spider mite (Panonychus ulmi) are sprayed with an active compound preparation of the desired concentration. After the specified period of time, the destruction in % is determined. 100% means that all the spider mites have been killed; 0% means that none of the spider mites have been killed.

[5] = system: caterpillars of the diamond-back moth (Plutella maculipennis); experiment: Plutella test; conditions: active compound concentration of 0.1%, after 7 days; cabbage leaves dipped
Procedure: Plutella Test [table] To produce a suitable preparation of active compound, 1 part by weight of active compound is mixed with the stated amount of solvent and the stated amount of emulsifier, and the concentrate is diluted with water to the desired concentration. Cabbage leaves (Brassica oleracea) are treated by being dipped into the preparation of active compound of the desired concentration and are infested with caterpillars of the diamond-back moth (Plutella maculipennis) while the leaves are still moist. After the specified period of time, the destruction in % is determined. 100% means that all the caterpillars have been killed, 0% means that none of the caterpillars have been killed.

## Cc1ccccc1C1=C(O)C2(CCC(C)CC2)NC1=O (centres unmarked) [Example I-1-a-1]
[1]
  destruction in %: 100%
[2]
  destruction in %: 85%
[3]
  destruction in %: 100%

## CC(C)(C)C(=O)OC1=C(c2ccccc2Cl)C(=O)OC12CCCCC2 [Example I-2-b-1]
[4]
  efficacy (destruction in %): 100%

## Cc1ccccc1-c1c(O)c(C)c(-c2ccccn2)oc1=O [Example I-4-a-1]
[1]
  destruction in %: 100%
[5]
  destruction in %: 100%
[2]
  destruction in %: 85%
[3]
  destruction in %: 100%
